Data on six molecules can be found in US6656729B2, “Compositions which inhibit apoptosis, methods of purifying the compositions and uses thereof” (Sky High, LLC, priority 1993, dated 2003).

The subject of this experiment is C3H 10T1/2 cells. The experiment is described as follows: Apoptosis assay with C3H 10T1/2 cells (serum deprivation). The experiment is classed as cell-based. As to conditions: for ACTIVITY (anti-apoptotic activity of known phospholipids): serum-deprived 10T½ cells, dissolved at 10 mM (100× test concentration), pre-incubation in 1% BSA, final BSA ≦0.01%. The method, then:
In order to determine the apoptotic activity of the PAIs, the following experiment was performed. […] Exponential growth phase was assured by seeding at 2000 cells per 1 ml (5 ml for a 60 mm culture plate) five days prior to the beginning of the experiment. At T=0, cultures were transferred to serum-free medium, as an apoptosis stimulus, and seed extracts were added. Controls included 10^−7 M 12-O-tetradecanoyl phorbol-13-acetate (TPA) to ensure the responsiveness of the cell culture. The PAI samples prepared by extraction with ethanol and by gel filtration were added to serum free medium at 0.1 g dry weight equivalents and sterile filtered prior to addition to the cultures. Assays were performed in triplicate or quadruplicate. Analyses of the cell responses were made after between 22 and 28 hours of serum deprivation and/or treatment with soy flour derived PAIs. Two assays were performed on each cell culture plate consisting of differential cell counts.
1. All non-adherent or loosely adherent cells were removed from the culture dish and counted by appropriate techniques, typically counting by electric particle counting instrument. These are the apoptotic cells, the serum deprived released cells (SDR), released by the action of cultivation in serum-free medium.
2. The remaining adherent cells (ADH) are exposed to a buffered, typically pH 7.3, balanced salt solution such as Hanks Balanced Salt Solution without calcium and magnesium salts containing 0.05% trypsin and 0.53 mM ethylenediaminetetraacetic acid (EDTA). Each culture is incubated at either room temperature or 37° C. on a rocking platform to ensure uniform distribution of the trypsin reagent over the culture surface. After a standardized period of time, typically 10 minutes, the released cells are removed from each culture dish and measured by the same means as described above, typically electronic particle counting.
All commercial samples were dissolved at a concentration of 10 mM (100× test concentration) in 1% bovine serum albumin (BSA), 0.5 mM calcium chloride, 0.5 mM magnesium chloride, at room temperature. All compounds were tested after pre-incubation in 1% BSA. The final concentration of BSA in the apoptosis was ≦0.01%. […] All tested compounds were obtained from Sigma. The BSA was obtained from Boehringer Mannheim.

Turning to L-a-lysophosphatidyl ethanolamine, the “ACTIVITY (anti-apoptotic activity of known phospholipids)” value was 0.

Consider L-a-phosphatidyl inositol, for which the “ACTIVITY (anti-apoptotic activity of known phospholipids)” value amounted to 0.

Consider “L-a-phosphatidyl choline [L-a-phosphatidyl choline Type V-EA]”, for which the “ACTIVITY (anti-apoptotic activity of known phospholipids)” value came out at 0.

Regarding `CCCCCCCC/C=C\CCCCCCCC(=O)OC[C@@H](O)COP(=O)(O)O` (stereo in doubt) [L-a-lysophosphatidic acid, oleoyl (C18:1, [cis]-9)], the “ACTIVITY (anti-apoptotic activity of known phospholipids)” value is “++”. In addition, the “Anti-apoptotic activity (in words)” value (in the presence of Bowman-Birk inhibitors) is on record as “does not confer anti-apoptotic activity”. For the same molecule, the “Anti-apoptotic activity (in words)” value (in the presence of a protein or proteins to which it specifically binds (serum albumin)) is “possess anti-apoptotic activity”. Also, the “Anti-apoptotic activity (in words)” value (in the presence of fraction B) is recorded as “possessed anti-apoptotic activity”. In addition, the “Effect of pre-incubation on anti-apoptotic activity” value (pre-incubation with BSA (FIG. 14)) is given as “enhanced”. The “Effect of pre-incubation on anti-apoptotic activity” value (pre-incubation with fraction B (FIG. 14)) is “enhanced”. Further, the “Anti-apoptotic activity (in words)” value (substance or fraction alone) is on record as “no anti-apoptotic activity”.

Regarding `CCCCCCCC/C=C\CCCCCCCC(=O)OC[C@H](COP(=O)(O)O)OC(=O)CCCCCCC/C=C\CCCCCCCC` (stereo in doubt) [L-a-phosphatidic acid, dioleoyl (C18:1, [cis]-9)], the “ACTIVITY (anti-apoptotic activity of known phospholipids)” value was 0.

As to “L-a-phosphatidyl ethanolamine [L-a-phosphatidyl ethanolamine, Type IV]”, the “ACTIVITY (anti-apoptotic activity of known phospholipids)” value is listed as 0.
